Key:
SKMEL-28 mitochondria = assay: 2-D gel electrophoresis of mitochondria enriched samples; assay type: cell-based
HASMC cells = assay: SeaHorse XF analyzer OCR and ECAR; assay type: cell-based, human; settings: hyperglycemic, hypoxic conditions
Text: (§1) Environmental influencers (e.g., MIMs or Epi-shifters) may also be identified by changes in cellular energetics. One example of the measurement of cellular energetics are the real-time measures of the consumption of molecular oxygen and/or the change in pH of the media of a cell culture. For example, the ability of a potential epi-shifter to modulate the metabolic state of a cell may be analyzed using, for example, the XF24 Analyzer (Seahorse, Inc.). This technology allows for real time detection of oxygen and pH changes in a monolayer of cells in order to evaluate the bioenergetics of a cell microenvironment. The XF24 Analyzer measures and compares the rates of oxygen consumption (OCR), which is a measure of aerobic metabolism, and extracellular acidification (ECAR), which is a measure of glycolysis, both key indicators of cellular energetics.
(§2) (SeaHorse Biosciences Inc, North Billerica, Mass.).
In this experiment, the OCR and extracellular acidification rate (ECAR) in normal cells lines were obtained in the presence and absence of CoQ10 to determine baseline values. It was observed that in its native nutrient environment, the basal OCR rates in normal cells lines are different, and are usually a function of the physiological roles of the cells in the body. […]
In Table 54 the measured baseline ECAR values (mpH/min) in HASMC were higher compared to that of HDFa. […]

[1] = test system: MCF-7 breast cancer cells; assay: SeaHorse XF analyzer OCR and ECAR; assay type: cell-based; settings: absence and presence of stressors
Text: as §1, §2
In contrast, cancer cells (e.g., MCF-7, PaCa-2) are inherently primed to culture at higher levels of glucose compared to normal cells due to their glycolytic phenotype for maintenance in culture.

SCC cells = assay: 2-D gel electrophoresis proteomic analysis with mass spectrometry identification; assay type: cell-based; settings: 100 μM Q10, 24 hr
Text: The gels were run in duplicate.

variety of cell types = assay: Western blot analysis (Bcl-xL, Vimentin, oxidative phosphorylation complexes, mitochondrial membrane integrity proteins); assay type: cell-based; settings: 50 or 100 μM Q10
Protocol: Approximately 50 μg of protein were assayed per sample by immunoblotting. All treatments were run in triplicate with controls. […] The primary antibodies were incubated overnight at 4 degrees C. in a 5% BSA and TBST solution. Secondary antibodies were incubated for one hour at 4 degrees. All antibodies were purchased from Cell Signaling Technology. Antibodies were used at a ratio of 1:1000, with the exception of βActin at a ratio of 1:5000. Blots were developed and results were quantified using the NIH Java based densitometer analysis software Image J. All blots were also probed for and normalized to their respective βActin expression.
The first experiment processed and evaluated by Western blot and 2-D gel electrophoresis was carried out on the skin cancer cell line SKMEL-28.
A variety of cell types were evaluated by Western blot analysis against an antibody for Bcl-xL (FIG. 14), an antibody for Vimentin (FIG. 15), a series of antibodies for mitochondrial oxidative phosphorylation function (FIGS. 16-21) and against a series of antibodies related to mitochondrial membrane integrity (FIGS. 22-27).

## COC1=C(OC)C(=O)C(C/C=C(\C)CC/C=C(\C)CC/C=C(\C)CC/C=C(\C)CC/C=C(\C)CC/C=C(\C)CC/C=C(\C)CC/C=C(\C)CC/C=C(\C)CCC=C(C)C)=C(C)C1=O [Q10, Coenzyme Q10]
SKMEL-28 mitochondria; 100 μM Q10, 19 and 48 hr
  PDIA3 (ER60 protein), spot 110: Response: Up at 19 and 48 hr
  Unknown, spot 131: Response: drops more for 19
SKMEL-28 mitochondria; 100 μM Q10, 48 hr
  CCDC58, spot 75: Response: Up at 48 hr
SKMEL-28 mitochondria; 100 μM Q10, after 6 hr
  Unknown protein, spot 11: Response: drop to low levels
SKMEL-28 mitochondria; 100 μM Q10, only at 19 hr
  Beta-Actin, spot 202: Response: Up only at 19 hr
  KRT10 (Keratin 10), spot 185: Response: Up only at 19 hr
  MLEC (Malectin), spot 246: Response: Up only at 19 hr
HASMC cells
  ECAR rates: downward trend
[1]
  OCR values: consistent reduction
SCC cells
  HSP 70, spot 116: Response (further): decrease at 24 hr
  NM23 protein (NME1), spot 54: Response: decrease at 24 hr
Variety of cell types
  levels of examined proteins (Bcl-xL, Vimentin, oxidative phosphorylation and mitochondrial membrane integrity proteins): upregulated or downregulated
